Experimental data as given in PMC8955938, “c-Myc Protein Level Affected by Unsymmetrical Bisacridines Influences Apoptosis and Senescence Induced in HCT116 Colorectal and H460 Lung Cancer Cells” (International Journal of Molecular Sciences, 2022).
Values joined by “and” are separate entries in the source; they are usually repeats but may differ in a detail not shown here. Identical values can stand only once.

Legend:
Format in all cases: cell-based, human
[1] = tested on: CCD 841 CoN cells; assay: MTT cell growth inhibition assay, CCD 841 CoN; details: CCD 841 CoN normal cells, 72 h
Description: To assess cell viability, the MTT assay was used. HCT116, H460, CCD 841 CoN and MRC-5 cells (20,000/well and 50,000/well for cancer and normal cells, respectively) were seeded in 24-well plates, and the following UAs were added at concentrations up to 10 μM: C-2028, C-2041, C-2045 and C-2053. Stock solutions (10 mM) were prepared in sterile water, as well as dilutions, also in water. After 72 h, 3-(4, 5-dimethylthiazol-2-yl)-2,5-diphenyltetrazolium bromide (MTT; 800 μg/well) was added for 3 h, then the formazan crystals were dissolved in DMSO, and absorbance was read at 540 nm. Each point was conducted at least 4 times, and data are expressed relative to controls. The concentration of the drug required to inhibit cells growth by 50 (IC50), 80 (IC80) and 90% (IC90) compared to untreated control cells was determined from the curves plotting survival as a function of dose.

[2] = tested on: MYC gene expression in H460 cells; assay: RT-PCR MYC expression in H460; details: H460, IC90 doses; for relative mRNA level of MYC gene: with time of incubation up to 120 h
Description: HCT116, H460, CCD 841 CoN and MRC-5 cells after treatment with UAs were collected, washed twice with ice-cold PBS and resuspended in […] of PBS. mRNA was isolated using High Pure RNA Isolation Kit according to the manufacturer’s instructions (Roche, Basel, Switzerland). Briefly, cells were lysed in lysis-binding buffer and transferred to a filter tube. Contaminating DNA was removed by 15 min incubation of the filter tube with DNase I solution. The filter tube was washed once with buffer I and twice with buffer II, and after centrifugation, total RNA was eluted using the elution buffer. RNA concentration was determined by NanoDrop One (Thermo Scientific); 1 µg of RNA was reverse transcribed using Transcriptor First Strand cDNA Synthesis Kit according to the manufacturer’s instructions (Roche) in 20 µL of reaction containing 1 µg of RNA, […] anchored-oligo(dT)18Primer, 8 mM MgCl2, 20 U of Protector RNase Inhibitor, deoxynucleotide mix (1 mM each) and 22 U of Transcriptor Reverse Transcriptase. The reverse transcription reaction was carried out for 30 min at 55 °C and stopped by heating to 85 °C for 5 min and placing on ice. The cDNA solution was stored at −20 °C until use. Real-time polymerase chain reaction (PCR) was performed on 2 µL of cDNA using 0.2 µM forward and reverse primers on LightCycler® 480 using LightCycler® 480 SYBR Green I Master according to manufacturer’s instructions (Roche). Primers were designed using BLAST website. Their efficiency was checked, and they were ordered from Genomed (Warsaw, Poland). The sequences of primers were as follows: MYC set 1 forward primer, […]; MYC set 1 reverse primer, […]; MYC set 2 forward primer, […]; MYC set 2 reverse primer, […]; KRAS forward primer, […]; KRAS reverse primer, […]; reference gene, GAPDH forward primer ACCCACTCCTCCACCTTTG; and GAPDH reverse primer, CTCTTGTGCTCTTGCTGGG. Cycling conditions were as follows: 1 cycle for 7 min at 95 °C (preincubation), 45 cycles of amplification: 10 s at 95 °C (denaturation), 20 s at 62 °C (annealing), 30 s at 72 °C (extension), 1 cycle for obtaining melting curve and 1 cycle for 10 s at 40 °C (cooling). The results were standardized to the reference gene GADPH. The relative expression level of MYC and KRAS was quantified using comparative method […]. The results were obtained from three independent experiments, each of which was analyzed at least twice.

[3] = tested on: HCT116 cells; assay: Cell cycle analysis (PI, flow cytometry), HCT116; details: HCT116, IC90 doses; for cells with more than 4N DNA (polyploid): during the time of incubation (time not specified), control 10%; for cells in G2/M (4N DNA): during the treatment after accumulation at 24 h (time not specified)
Description: After drug treatment, trypsinized and floating cells (2 × 10^6) were pooled, washed twice with ice-cold PBS and fixed in 70% (v/v) ethanol overnight at −20 °C. Cells were stained with propidium iodide (PI) (BD Biosciences, San Jose, CA, USA) and monitored by FACS Accuri C6 (BD Biosciences, San Jose, CA, USA).

[4] = tested on: H460 cells; assay: Nuclear morphology (Hoechst 33342), H460; details: H460, IC90 doses, 72 and 120 h similar level (time not specified)
Description: Nuclear morphology was examined under a fluorescence microscope (OLYMPUS BX60, […]) after staining with Hoechst 33342. Briefly, after drug treatment, HCT116, H460, CCD 841 CoN and MRC-5 cells were spun onto microscopic slides, fixed with methanol:acetic acid (3:1) for 15 min and stained with Hoechst 33342 (1 mg/mL) for 15 min. Cells were regarded as apoptotic based on the presence of condensed, fragmented chromatin. Enlarged cells containing multiple nuclei were considered as typical of mitotic catastrophe.

[5] = tested on: H460 cells; assay: Annexin V/PI dual staining, H460; details: H460, IC90 doses; for necrotic cells (stained only with PI): during the incubation time
Description: Annexin V–FITC binding was performed with an Annexin-V Fluos Staining kit (BD Biosciences, San Jose, CA, USA) according to manufacturer’s protocol. Briefly, after drug treatment, HCT116 and H460 cells (1 × 10^6) were trypsinized, washed twice with ice-cold PBS, pelleted and resuspended in 100 µL of binding buffer containing Annexin-V–FITC and PI. Cells were incubated for 15 min at room temperature in the dark, then diluted with 400 µL of binding buffer and analyzed by flow cytometry with FACS Accuri C6 (BD, San Jose, CA, USA). Cells with low FITC and PI fluorescence were considered viable. Cells that presented high FITC fluorescence but low PI fluorescence were regarded as early apoptotic. Late apoptotic cells presented high FITC and PI fluorescence. Necrotic cells had low FITC fluorescence and high PI fluorescence.

[6] = tested on: H460 cells; assay: Colony-forming assay, H460; details: for number of colonies: H460, 120 h treatment at IC90 doses, about 250 cells cultured two weeks in fresh medium; for return to proliferation (colony formation): H460, IC90 doses, already after 24 h of incubation
Description: The ability of cells to return to proliferation after UAs treatment was measured by a colony-forming assay. After drug treatment, 250 HCT116 and H460 cells were harvested and seeded in a new 6-well plate containing fresh medium without the drug and incubated for two weeks. Untreated cells were used as controls. After two weeks, colonies were fixed with 80% ethanol, stained with crystal violet, counted, and photos were taken.

Row | SMILES | IC90 ([1]; Homo sapiens) [nM] | IC50 ([1]; Homo sapiens, CCD-841CoN) [nM] | relative mRNA level of MYC gene [2] | Poli (polyploid cells) ([3]; 24 h) [%] | cells in G1 ([3]; 24 h) | cells in G2/M ([3]; 24 h) [%] | cells in S ([3]; 24 h) | cells in Sub-G1 ([3]; 24 h) [%] | Poli (polyploid cells) ([3]; 72 h) [%] | cells in G1 ([3]; 72 h) [%] | cells in G2/M ([3]; 72 h) [%] | cells in S ([3]; 72 h) [%] | cells in Sub-G1 ([3]; 72 h) [%] | Poli (polyploid cells) ([3]; 120 h) [%] | cells in G1 ([3]; 120 h) | cells in G2/M ([3]; 120 h) [%] | cells in S ([3]; 120 h) [%] | cells in Sub-G1 ([3]; 120 h) | cells with more than 4N DNA (polyploid) [3] | annexin V positive cells (early and late apoptotic) ([5]; 120 h) [%] | also measured
1 | CN(CCCNc1c2ccccc2nc2cccc([N+](=O)[O-])c12)CCCNc1ccc2ncn3c4ccccc4c(=O)c1c23 [Compound C-2028] | 3690 ± 1080 | ~20 | stayed at the similar level | 5.73 ± 0.93 | 24.89 ± 3.90% | 45.89 ± 3.13 | 19.33 ± 1.58% | 3.37 ± 0.69 | 5.11 ± 1.54 | 28.63 ± 5.96 | 21.02 ± 4.86 | 7.67 ± 2.54 | 36.97 ± 8.93 | 5.73 ±2.33 | 25.39 ± 3.25% | 26.26 ± 4.90 | 4.95 ± 1.90 | 37.46 ± 9.35% and 37.5% and 30% | 5% | 48.7 | IC50 [1]: 25 ± 7 nM; cells in G2/M (4N DNA) [3]: ~23%; apoptotic cells (nuclear morphology) [4]: 24.8%; necrotic cells (stained only with PI) [5]: ≤ 10%; number of colonies [6]: eight
2 | O=c1c2ccccc2n2cnc3ccc(NCCCN4CCN(CCCNc5c6ccccc6nc6cccc([N+](=O)[O-])c56)CC4)c1c32 [Compound C-2041] | 5120 ± 1090 | 36 ± 5 | 1.65 | 4.22 ± 2.00 | 28.75 ± 3.88% and 29% | 29.92 ± 4.56 | 25.97 ± 2.80% and 26% | 11.81 ± 1.94 | 4.47 ± 2.13 | 22.16 ± 5.06 | 14.29 ± 1.52 | 9.59 ± 2.24 | 48.83 ± 7.71 | 4.64 ± 2.56 | 13.63 ± 3.71% and 13.6% | 9.44 ± 3.88 | 3.25 ± 1.05 |  | 5% | 35.9 | necrotic cells (stained only with PI) [5]: ≤ 10%; number of colonies [6]: 77 colonies
3 | Cc1ccc([N+](=O)[O-])c2c(NCCCN(C)CCCNc3ccc4ncn5c6ccc(O)cc6c(=O)c3c45)c3ccccc3nc12 [Compound C-2045] | 5340 ± 1850 | ~300 | around 0.55 | 4.91 ± 2.33 | 24.61 ± 2.63% | 50.18 ± 2.39 | 16.33 ± 1.34% | 3.90 ± 0.83 | 12.20 ± 1.85 | 28.51 ± 4.31 | 34.06 ± 3.35 | 6.15 ± 0.70 | 17.38 ± 4.00 | 15.17 ± 3.74 | 22.11 ± 2.54% | 22.94 ± 2.48 | 4.56 ± 1.19 | 35.40 ± 5.84% and 35.4% and 30% | around 15% | 49.4 | IC50 [1]: 338 ± 27 nM; drop of MYC mRNA level [2]: 50%; cells in G2/M (4N DNA) [3]: ~23%; apoptotic cells (nuclear morphology) [4]: 41.8%; necrotic cells (A−PI+) ([5]; 120 h): ~12%; return to proliferation (colony formation) [6]: completely blocked their return to proliferation
4 | Cc1ccc([N+](=O)[O-])c2c(NCCCN(C)CCCNc3ccc4ncn5c6ccccc6c(=O)c3c45)c3ccccc3nc12 [Compound C-2053] | 4100 ± 470 | 240 ± 40 | around 0.55 | 8.89 ± 1.38 | 22.34 ± 2.79% | 44.81 ± 7.10 | 19.19 ± 1.77% | 3.06 ± 1.09 | 11.02 ± 2.20 | 35.18 ± 2.63 | 36.32 ± 3.14 | 5.43 ± 1.59 | 10.45 ± 2.56 | 14.62 ± 4.62 | 30.06 ± 4.35% | 27.20 ± 4.16 | 4.10 ± 0.56 | 23.64 ± 4.86% and 23.6% | around 15% | 53.1 | drop of MYC mRNA level [2]: 50%; cells in G2/M (4N DNA) [3]: ~23%; apoptotic cells (nuclear morphology) [4]: 41.6%; necrotic cells (stained only with PI) [5]: ≤ 10%; return to proliferation (colony formation) [6]: completely blocked their return to proliferation
